Measured values taken from article PMC10418735, “Lipophilic Studies and In Silico ADME Profiling of Biologically Active 2-Aminothiazol-4(5H)-one Derivatives” (International Journal of Molecular Sciences, 2023).

Columns and labels:
[1] = Lipophilicity by RP-HPLC (methanol/water, RP-18 column); format: physicochemical; details: for −S (slope of the regression curve), RP–HPLC / log kw: methanol/water, RP-HPLC; for log kw: extrapolated to zero methanol concentration, 25 °C; for Φ0 (chromatographic lipophilicity parameter), RP–HPLC: Φ0 = −log kw/S
Method: The HPLC experiments were performed on the Shimadzu HPLC system (Kyoto, Japan) equipped with solvent delivery pump LC-20AD, UV–VIS detector model SPD-20A, degasser model DGU-20A5, a column oven model CTO-20A, and a column Superspher® 100 RP-18 (4 μm), Merck (Darmstadt, Germany). Methanol and water for HPLC from POCH (Gliwice, Poland) were used as solvents. Mobile phase methanol/water varied in the various ratios. Methanol concentration expressed as volume fraction v/v, varied in the range from 0.55 to 0.95 in constant steps of 0.05. Compounds 1–28 were dissolved in methanol (1 mg/mL). The mobile phase flow rate was 0.7 mL/min. The injection volume was 0.02 mL. All analyzes were performed at 25 °C. Experiments were performed in triplicate with similar results.
The retention coefficient k was calculated from the following relationship:(1) k=tr/tm−1, where tr [min]—retention time, and tm [min]—time for dead volume (measured by use of uracil).
To determine the linear relationship between the values of the log k parameter and the concentration of methanol in the mobile phase, the Soczewiński–Wachtmeister equation was used:(2) logk= log kw+SΦ, where log kw —value extrapolated to zero methanol concentration, Φ —methanol concentration in the mobile phase (volume fraction v/v), and S—the slope of the regression curve.
The parameter Φ0 was calculated from the equation:(3) Φ0=−log kw/S.

[2] = Lipophilicity by RP-TLC (methanol/water, HPTLC 60RP-18 plates); format: physicochemical; details: for −S (slope of the regression curve), RP–TLC / RM0: methanol/water, RP-TLC; for RM0: extrapolated to zero methanol concentration, 22 °C; for Φ0 (chromatographic lipophilicity parameter), RP–TLC: Φ0 = −RM0/S
Method: Specifically, 10 × 10 cm plates with silica gel HPTLC 60RP-18 WF254s (Merck, Darmstadt, Niemcy) were used as the stationary phase. Methanol and water for HPLC from POCH (Gliwice, Poland) were used as solvents. Methanol concentration expressed as volume fraction v/v, varied in the range from 0.5 to 0.7 in constant steps of 0.05. Test compounds were dissolved in methanol (2 mg/mL), and then samples (0.01 mL) of each were applied to plates, which were developed in a horizontal DS chamber (Chromdes, Lublin, Poland).
The developing distance was 8 cm. Developed plates were air-dried and observed under 254 nm ultraviolet lamp. All analyzes were performed at 22 °C. Experiments were performed in triplicate with similar results.
For all the compounds, the relative lipophilicity RM values for five methanol–water mobile phases were calculated by the use of the following formula:(4) RM=log[1−RF/RF].
The linear relationship between the RM values and the concentration of methanol in the mobile phase to determine the lipophilicity parameters RM0 is described by the following equation:(5) RM=RM0+SΦ, where Φ —methanol concentration in the mobile phase (volume fraction v/v), and S—the slope of the regression curve.
The quantity Φ0 was calculated from the following equation:(6) Φ0=−RM0/S.

With `CC(C)NC1=NC(=O)C(C)S1` (stereo not drawn) [Compound 1, 5-methyl-2-isopropylaminothiazol-4(5H)-one] the “−S (slope of the regression curve), RP–HPLC” value [1] was 2.975, the log kw [1] was 1.35 and the “Φ0 (chromatographic lipophilicity parameter), RP–HPLC” value [1] was 0.454. For the same compound, the “−S (slope of the regression curve), RP–TLC” value [2] was 1.280, the RM0 [2] was 0.94 and the “Φ0 (chromatographic lipophilicity parameter), RP–TLC” value [2] was 0.734.

With `CCC1SC(NC(C)C)=NC1=O` (stereo not drawn) [Compound 2] the “−S (slope of the regression curve), RP–HPLC” value [1] was 3.254, the log kw [1] was 1.86 and the “Φ0 (chromatographic lipophilicity parameter), RP–HPLC” value [1] was 0.571. The “−S (slope of the regression curve), RP–TLC” value [2] was 2.075, the RM0 [2] was 1.39 and the “Φ0 (chromatographic lipophilicity parameter), RP–TLC” value [2] was 0.668.

In the case of `CCCC1SC(NC(C)C)=NC1=O` (stereo not drawn) [Compound 3], the “−S (slope of the regression curve), RP–HPLC” value [1] is reported as 3.494, the log kw [1] is reported as 2.28 and the “Φ0 (chromatographic lipophilicity parameter), RP–HPLC” value [1] is reported as 0.652. The “−S (slope of the regression curve), RP–TLC” value [2] was 2.422, the RM0 [2] was 1.63 and the “Φ0 (chromatographic lipophilicity parameter), RP–TLC” value [2] was 0.673.

In the case of `CC(C)NC1=NC(=O)C(C(C)C)S1` (stereo not drawn) [Compound 4], the “−S (slope of the regression curve), RP–HPLC” value [1] is reported as 3.603, the log kw [1] is reported as 2.28 and the “Φ0 (chromatographic lipophilicity parameter), RP–HPLC” value [1] is reported as 0.633. For the same compound, the “−S (slope of the regression curve), RP–TLC” value [2] was 2.127, the RM0 [2] was 1.41 and the “Φ0 (chromatographic lipophilicity parameter), RP–TLC” value [2] was 0.663.

For `CC(C)NC1=NC(=O)C(C)(C)S1` [Compound 5], the “−S (slope of the regression curve), RP–HPLC” value [1] was 3.400, the log kw [1] was 1.94 and the “Φ0 (chromatographic lipophilicity parameter), RP–HPLC” value [1] was 0.571. The “−S (slope of the regression curve), RP–TLC” value [2] was 1.903, the RM0 [2] was 1.20 and the “Φ0 (chromatographic lipophilicity parameter), RP–TLC” value [2] was 0.629.

With `CC(C)NC1=NC(=O)C(c2ccccc2)S1` (stereo not drawn) [Compound 6] the “−S (slope of the regression curve), RP–HPLC” value [1] was 4.3069, the log kw [1] was 2.84 and the “Φ0 (chromatographic lipophilicity parameter), RP–HPLC” value [1] was 0.659. The “−S (slope of the regression curve), RP–TLC” value [2] was 2.049, the RM0 [2] was 1.58 and the “Φ0 (chromatographic lipophilicity parameter), RP–TLC” value [2] was 0.771.

For `CC(C)NC1=NC(=O)C(c2ccc(Br)cc2)S1` (stereo not drawn) [Compound 7], the “−S (slope of the regression curve), RP–HPLC” value [1] was 4.422, the log kw [1] was 3.22 and the “Φ0 (chromatographic lipophilicity parameter), RP–HPLC” value [1] was 0.728. For the same compound, the “−S (slope of the regression curve), RP–TLC” value [2] was 3.870, the RM0 [2] was 2.85 and the “Φ0 (chromatographic lipophilicity parameter), RP–TLC” value [2] was 0.736.

With `CC(C)NC1=NC(=O)C2(CCCCC2)S1` [Compound 8] the “−S (slope of the regression curve), RP–HPLC” value [1] was 4.170, the log kw [1] was 2.97 and the “Φ0 (chromatographic lipophilicity parameter), RP–HPLC” value [1] was 0.712. The “−S (slope of the regression curve), RP–TLC” value [2] was 2.877, the RM0 [2] was 2.04 and the “Φ0 (chromatographic lipophilicity parameter), RP–TLC” value [2] was 0.709.

In the case of `CC(C)NC1=NC(=O)C2(CCC2)S1` [Compound 9], the “−S (slope of the regression curve), RP–HPLC” value [1] is reported as 2.890, the log kw [1] is reported as 1.79 and the “Φ0 (chromatographic lipophilicity parameter), RP–HPLC” value [1] is reported as 0.619. For the same compound, the “−S (slope of the regression curve), RP–TLC” value [2] was 1.990, the RM0 [2] was 1.37 and the “Φ0 (chromatographic lipophilicity parameter), RP–TLC” value [2] was 0.691.

In the case of `CC1SC(NC(C)(C)C)=NC1=O` (stereo not drawn) [Compound 10], the “−S (slope of the regression curve), RP–HPLC” value [1] is reported as 3.122, the log kw [1] is reported as 1.74 and the “Φ0 (chromatographic lipophilicity parameter), RP–HPLC” value [1] is reported as 0.557. For the same compound, the “−S (slope of the regression curve), RP–TLC” value [2] was 2.393, the RM0 [2] was 1.57 and the “Φ0 (chromatographic lipophilicity parameter), RP–TLC” value [2] was 0.658.

For `CCC1SC(NC(C)(C)C)=NC1=O` (stereo not drawn) [Compound 11], the “−S (slope of the regression curve), RP–HPLC” value [1] was 3.073, the log kw [1] was 1.88 and the “Φ0 (chromatographic lipophilicity parameter), RP–HPLC” value [1] was 0.612. The “−S (slope of the regression curve), RP–TLC” value [2] was 2.478, the RM0 [2] was 1.59 and the “Φ0 (chromatographic lipophilicity parameter), RP–TLC” value [2] was 0.643.

For `CCCC1SC(NC(C)(C)C)=NC1=O` (stereo not drawn) [Compound 12], the “−S (slope of the regression curve), RP–HPLC” value [1] was 3.606, the log kw [1] was 2.46 and the “Φ0 (chromatographic lipophilicity parameter), RP–HPLC” value [1] was 0.682. For the same compound, the “−S (slope of the regression curve), RP–TLC” value [2] was 2.426, the RM0 [2] was 1.71 and the “Φ0 (chromatographic lipophilicity parameter), RP–TLC” value [2] was 0.703.

In the case of `CC(C)C1SC(NC(C)(C)C)=NC1=O` (stereo not drawn) [Compound 13], the “−S (slope of the regression curve), RP–HPLC” value [1] is reported as 3.585, the log kw [1] is reported as 2.39 and the “Φ0 (chromatographic lipophilicity parameter), RP–HPLC” value [1] is reported as 0.667. For the same compound, the “−S (slope of the regression curve), RP–TLC” value [2] was 2.095, the RM0 [2] was 1.46 and the “Φ0 (chromatographic lipophilicity parameter), RP–TLC” value [2] was 0.699.
